Source: PubChem BioAssay (NCI)
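Five compound concentrations were applied to cells in 96-well plates for 48 hours; endpoints were derived by simple linear interpolation of the resulting dose-response curve. TGI denotes the concentration required for complete inhibition of growth.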

Legend:
Assay in all cases: DTP human tumour cell line panel, 48 h
786-0 renal = system: 786-0 renal
A498 renal = system: A498 renal
A549 NSCLC = system: A549 NSCLC
ACHN renal = system: ACHN renal
BT-549 breast = system: BT-549 breast
CAKI-1 renal = system: CAKI-1 renal
CCRF-CEM leukemia = system: CCRF-CEM leukemia
COLO 205 colon = system: COLO 205 colon
DU-145 prostate = system: DU-145 prostate
EKVX NSCLC = system: EKVX NSCLC
HCC-2998 colon = system: HCC-2998 colon
HCT-116 colon = system: HCT-116 colon
HCT-15 colon = system: HCT-15 colon
HL-60(TB) leukemia = system: HL-60(TB) leukemia
HOP-62 NSCLC = system: HOP-62 NSCLC
HOP-92 NSCLC = system: HOP-92 NSCLC
HS 578T breast = system: HS 578T breast
HT29 colon = system: HT29 colon
IGROV1 ovarian = system: IGROV1 ovarian
K-562 leukemia = system: K-562 leukemia
KM12 colon = system: KM12 colon
LOX IMVI melanoma = system: LOX IMVI melanoma
M14 melanoma = system: M14 melanoma
MALME-3M melanoma = system: MALME-3M melanoma
MCF7 breast = system: MCF7 breast
MDA-MB-231 breast = system: MDA-MB-231 breast
MDA-MB-435 = system: MDA-MB-435
MDA-N = system: MDA-N
MOLT-4 leukemia = system: MOLT-4 leukemia
NCI-H226 lung = system: NCI-H226 lung
NCI-H23 lung = system: NCI-H23 lung
NCI-H460 lung = system: NCI-H460 lung
NCI-H522 lung = system: NCI-H522 lung
NCI/ADR-RES ovarian = system: NCI/ADR-RES ovarian
OVCAR-3 ovarian = system: OVCAR-3 ovarian
OVCAR-4 ovarian = system: OVCAR-4 ovarian
OVCAR-5 ovarian = system: OVCAR-5 ovarian
OVCAR-8 ovarian = system: OVCAR-8 ovarian
PC-3 prostate = system: PC-3 prostate
RPMI-8226 leukemia = system: RPMI-8226 leukemia
RXF 393 renal = system: RXF 393 renal
SF-268 CNS = system: SF-268 CNS
SF-295 CNS = system: SF-295 CNS
SF-539 CNS = system: SF-539 CNS
SK-MEL-28 melanoma = system: SK-MEL-28 melanoma
SK-MEL-5 melanoma = system: SK-MEL-5 melanoma
SK-OV-3 ovarian = system: SK-OV-3 ovarian
SN12C renal = system: SN12C renal
SNB-19 CNS = system: SNB-19 CNS
SNB-75 CNS = system: SNB-75 CNS
SR leukemia = system: SR leukemia
SW-620 colon = system: SW-620 colon
T-47D breast = system: T-47D breast
TK-10 renal = system: TK-10 renal
U251 CNS = system: U251 CNS
UACC-257 melanoma = system: UACC-257 melanoma
UACC-62 melanoma = system: UACC-62 melanoma
UO-31 renal = system: UO-31 renal
SK-MEL-2 melanoma = system: SK-MEL-2 melanoma

Q: What does the source list for `CSc1nc(C)c(CCOC(C)=O)c(Cl)n1`?
A: TGI (786-0 renal): > 100 µM; TGI (A498 renal): > 100 µM; TGI (A549 NSCLC): > 100 µM; TGI (ACHN renal): > 100 µM; TGI (BT-549 breast): > 100 µM; TGI (CAKI-1 renal): > 100 µM; TGI (CCRF-CEM leukemia): > 100 µM; TGI (COLO 205 colon): > 100 µM; TGI (DU-145 prostate): > 100 µM; TGI (EKVX NSCLC): > 100 µM; TGI (HCC-2998 colon): > 100 µM; TGI (HCT-116 colon): > 100 µM; TGI (HCT-15 colon): > 100 µM; TGI (HL-60(TB) leukemia): > 100 µM; TGI (HOP-62 NSCLC): > 100 µM; TGI (HOP-92 NSCLC): > 100 µM; TGI (HS 578T breast): > 100 µM; TGI (HT29 colon): > 100 µM; TGI (IGROV1 ovarian): > 100 µM; TGI (K-562 leukemia): > 100 µM; TGI (KM12 colon): > 100 µM; TGI (LOX IMVI melanoma): > 100 µM; TGI (M14 melanoma): > 100 µM; TGI (MALME-3M melanoma): > 100 µM; TGI (MCF7 breast): > 100 µM; TGI (MDA-MB-231 breast): > 100 µM; TGI (MDA-MB-435): > 100 µM; TGI (MDA-N): > 100 µM; TGI (MOLT-4 leukemia): > 100 µM; TGI (NCI-H226 lung): > 100 µM; TGI (NCI-H23 lung): > 100 µM; TGI (NCI-H460 lung): > 100 µM; TGI (NCI-H522 lung): > 100 µM; TGI (NCI/ADR-RES ovarian): > 100 µM; TGI (OVCAR-3 ovarian): > 100 µM; TGI (OVCAR-4 ovarian): > 100 µM; TGI (OVCAR-5 ovarian): > 100 µM; TGI (OVCAR-8 ovarian): > 100 µM; TGI (PC-3 prostate): > 100 µM; TGI (RPMI-8226 leukemia): > 100 µM; TGI (RXF 393 renal): > 100 µM; TGI (SF-268 CNS): > 100 µM; TGI (SF-295 CNS): > 100 µM; TGI (SF-539 CNS): > 100 µM; TGI (SK-MEL-28 melanoma): > 100 µM; TGI (SK-MEL-5 melanoma): > 100 µM; TGI (SK-OV-3 ovarian): > 100 µM; TGI (SN12C renal): > 100 µM; TGI (SNB-19 CNS): > 100 µM; TGI (SNB-75 CNS): > 100 µM; TGI (SR leukemia): > 100 µM; TGI (SW-620 colon): > 100 µM; TGI (T-47D breast): > 100 µM; TGI (TK-10 renal): > 100 µM; TGI (U251 CNS): > 100 µM; TGI (UACC-257 melanoma): > 100 µM; TGI (UACC-62 melanoma): > 100 µM; TGI (UO-31 renal): > 100 µM

Q: With `CC(=O)c1ccc2c(c1)CC1(C2)Cc2ccc3c(c2C1=O)CCC3` (configuration not stated) as the compound, how does the TGI (786-0 renal) read?
A: 40.8 µM

Q: And the TGI (A498 renal)?
A: > 100 µM

Q: And the TGI (A549 NSCLC)?
A: > 100 µM

Q: What about the TGI (ACHN renal) of the same compound?
A: > 100 µM

Q: And the TGI (BT-549 breast)?
A: > 100 µM

Q: And the TGI (CAKI-1 renal)?
A: > 100 µM

Q: And the TGI (CCRF-CEM leukemia)?
A: > 100 µM

Q: What about the TGI (COLO 205 colon) of the same compound?
A: 39.9 µM

Q: What about the TGI (DU-145 prostate) of the same compound?
A: > 100 µM

Q: What about the TGI (HCC-2998 colon) of the same compound?
A: 37.8 µM

Q: And the TGI (HCT-116 colon)?
A: > 100 µM

Q: And the TGI (HCT-15 colon)?
A: > 100 µM

Q: And the TGI (HL-60(TB) leukemia)?
A: 48.3 µM

Q: What about the TGI (HOP-62 NSCLC) of the same compound?
A: > 100 µM

Q: What about the TGI (HOP-92 NSCLC) of the same compound?
A: 41.2 µM

Q: And the TGI (HS 578T breast)?
A: > 100 µM

Q: What about the TGI (HT29 colon) of the same compound?
A: 31.6 µM

Q: What about the TGI (IGROV1 ovarian) of the same compound?
A: > 100 µM

Q: What about the TGI (K-562 leukemia) of the same compound?
A: > 100 µM

Q: What about the TGI (KM12 colon) of the same compound?
A: > 100 µM

Q: What about the TGI (LOX IMVI melanoma) of the same compound?
A: > 100 µM

Q: What about the TGI (M14 melanoma) of the same compound?
A: 64.8 µM

Q: What about the TGI (MALME-3M melanoma) of the same compound?
A: 57 µM

Q: And the TGI (MCF7 breast)?
A: 72 µM

Q: What about the TGI (MDA-MB-231 breast) of the same compound?
A: > 100 µM

Q: And the TGI (MDA-MB-435)?
A: 45.3 µM

Q: What about the TGI (MDA-N) of the same compound?
A: 94.6 µM

Q: And the TGI (MOLT-4 leukemia)?
A: > 100 µM

Q: And the TGI (NCI-H226 lung)?
A: > 100 µM

Q: And the TGI (NCI-H23 lung)?
A: > 100 µM

Q: What about the TGI (NCI-H460 lung) of the same compound?
A: > 100 µM

Q: And the TGI (NCI-H522 lung)?
A: 54.6 µM

Q: What about the TGI (NCI/ADR-RES ovarian) of the same compound?
A: 71.9 µM

Q: And the TGI (OVCAR-3 ovarian)?
A: > 100 µM

Q: What about the TGI (OVCAR-4 ovarian) of the same compound?
A: > 100 µM

Q: And the TGI (OVCAR-5 ovarian)?
A: > 100 µM

Q: What about the TGI (PC-3 prostate) of the same compound?
A: > 100 µM

Q: What about the TGI (RPMI-8226 leukemia) of the same compound?
A: > 100 µM

Q: And the TGI (RXF 393 renal)?
A: 97 µM

Q: What about the TGI (SF-268 CNS) of the same compound?
A: > 100 µM

Q: And the TGI (SF-295 CNS)?
A: > 100 µM

Q: What about the TGI (SF-539 CNS) of the same compound?
A: > 100 µM

Q: And the TGI (SK-MEL-2 melanoma)?
A: 35.5 µM

Q: And the TGI (SK-MEL-28 melanoma)?
A: 56.5 µM

Q: What about the TGI (SK-MEL-5 melanoma) of the same compound?
A: 28.4 µM

Q: And the TGI (SK-OV-3 ovarian)?
A: > 100 µM

Q: And the TGI (SN12C renal)?
A: > 100 µM

Q: And the TGI (SNB-19 CNS)?
A: > 100 µM

Q: And the TGI (SNB-75 CNS)?
A: 91.3 µM

Q: And the TGI (SR leukemia)?
A: > 100 µM

Q: What about the TGI (SW-620 colon) of the same compound?
A: > 100 µM

Q: And the TGI (T-47D breast)?
A: 94.5 µM

Q: What about the TGI (TK-10 renal) of the same compound?
A: 64.2 µM

Q: What about the TGI (U251 CNS) of the same compound?
A: > 100 µM

Q: And the TGI (UACC-257 melanoma)?
A: 38.2 µM

Q: And the TGI (UACC-62 melanoma)?
A: 74.7 µM

Q: And the TGI (UO-31 renal)?
A: > 100 µM

Q: Which results are given for `CCS(=O)(=O)CCn1c(=O)c2c(ncn2C)n(C)c1=O`?
A: TGI (786-0 renal): > 100 µM; TGI (A498 renal): > 100 µM; TGI (A549 NSCLC): > 100 µM; TGI (ACHN renal): > 100 µM; TGI (BT-549 breast): > 100 µM; TGI (CAKI-1 renal): > 100 µM; TGI (CCRF-CEM leukemia): > 100 µM; TGI (COLO 205 colon): > 100 µM; TGI (DU-145 prostate): > 100 µM; TGI (EKVX NSCLC): > 100 µM; TGI (HCC-2998 colon): > 100 µM; TGI (HCT-116 colon): > 100 µM; TGI (HCT-15 colon): > 100 µM; TGI (HL-60(TB) leukemia): > 100 µM; TGI (HOP-62 NSCLC): > 100 µM; TGI (HOP-92 NSCLC): > 100 µM; TGI (HS 578T breast): > 100 µM; TGI (HT29 colon): > 100 µM; TGI (IGROV1 ovarian): > 100 µM; TGI (K-562 leukemia): > 100 µM; TGI (KM12 colon): > 100 µM; TGI (LOX IMVI melanoma): > 100 µM; TGI (M14 melanoma): > 100 µM; TGI (MALME-3M melanoma): > 100 µM; TGI (MCF7 breast): > 100 µM; TGI (MDA-MB-231 breast): > 100 µM; TGI (MDA-MB-435): > 100 µM; TGI (MDA-N): > 100 µM; TGI (MOLT-4 leukemia): > 100 µM; TGI (NCI-H23 lung): > 100 µM; TGI (NCI-H460 lung): > 100 µM; TGI (NCI-H522 lung): > 100 µM; TGI (NCI/ADR-RES ovarian): > 100 µM; TGI (OVCAR-3 ovarian): > 100 µM; TGI (OVCAR-4 ovarian): > 100 µM; TGI (OVCAR-5 ovarian): > 100 µM; TGI (OVCAR-8 ovarian): > 100 µM; TGI (PC-3 prostate): > 100 µM; TGI (RPMI-8226 leukemia): > 100 µM; TGI (RXF 393 renal): > 100 µM; TGI (SF-268 CNS): > 100 µM; TGI (SF-295 CNS): > 100 µM; TGI (SF-539 CNS): > 100 µM; TGI (SK-MEL-2 melanoma): > 100 µM; TGI (SK-MEL-28 melanoma): > 100 µM; TGI (SK-MEL-5 melanoma): > 100 µM; TGI (SN12C renal): > 100 µM; TGI (SNB-19 CNS): > 100 µM; TGI (SNB-75 CNS): > 100 µM; TGI (SR leukemia): > 100 µM; TGI (SW-620 colon): > 100 µM; TGI (T-47D breast): > 100 µM; TGI (TK-10 renal): > 100 µM; TGI (U251 CNS): > 100 µM; TGI (UACC-257 melanoma): > 100 µM; TGI (UACC-62 melanoma): > 100 µM; TGI (UO-31 renal): > 100 µM
